Test: Displacement of [3H]mesulergine from pig cortex 5-hydroxytryptamine 1C receptor

Row | SMILES | IC50 [nM]
1 | NCCc1c[nH]c2ccc(-c3nc(C4CC4)no3)cc12 | 1000
2 | CN(C)CCc1c[nH]c2ccc(Cc3nc(N)ns3)cc12 | 251
3 | CS(=O)(=O)Nc1ccc(Cc2noc(-c3ccc4[nH]cc(CCN)c4c3)n2)cc1 [L-694247] | 316
4 | NCCc1c[nH]c2ccc(-c3nc(Cc4ccccc4)no3)cc12 | 3980
5 | CC(=O)Nc1ccc(Cc2noc(-c3ccc4[nH]cc(CCN)c4c3)n2)cc1 | 1580
6 | Cc1noc(-c2ccc3[nH]cc(CCN)c3c2)n1 | 1260
7 | Cc1noc(Cc2ccc3[nH]cc(CCN)c3c2)n1 | 1260
8 | Cc1noc(Cc2ccc3[nH]cc(CCN(C)C)c3c2)n1 | 1000
9 | NCCc1c[nH]c2ccc(Cc3nc(N)no3)cc12 | 3160
10 | NCCc1c[nH]c2ccc(CCc3nc(Cc4ccccc4)no3)cc12 | 794
11 | COc1ccc(Cc2noc(-c3ccc4[nH]cc(CCN)c4c3)n2)cc1 | 794
12 | CN(C)CCc1c[nH]c2ccc(CCc3nc(N)no3)cc12 | 1000

From BindingDB's records for doi:10.1021/jm00063a003 (Merck Sharp and Dohme Research Laboratories, 1993)
